Test results published in article PMC3006138, “Fexinidazole – A New Oral Nitroimidazole Drug Candidate Entering Clinical Development for the Treatment of Sleeping Sickness” (PLoS Neglected Tropical Diseases, 2010).
Like-named read-outs stand apart in the source and are kept apart here.

Assay: Rat 28-day toxicokinetics
Assay type: in vivo
Details: plasma, po; for half-life: read-out: apparent terminal half-life (converted); for AUC: read-out: AUC within 24 hours post dosing
Protocol: In the rat repeated-dose toxicokinetic study, fexinidazole was administered orally by gavage once a day for 28 consecutive days to ten or fifteen Crl:CD (SD)IGS BR rats/sex/group at doses of 50, 200, or 800 mg/kg/day. A control group received the vehicle alone (5% Tween 80/0.5% methocel). Ten animals/sex/group were sacrificed at the end of the treatment period on day 29 or 30 of study. The remaining 5 animals/sex/group in the control and high-dose groups were sacrificed on day 43 at the end of a 2-weeks observation period. Systemic exposure to fexinidazole and its sulfoxide and sulfone metabolites was evaluated in three additional animals/sex/group. Samples were taken at predose, and 30 min, 1, 2, 4, 8 and 24 h after dosing on days 1, 14, and 28, and in addition at 48 and 72 h after treatment on day 28.
Toxicokinetic Report for the study No. 0504-2007
SD Standard deviation of the mean […]
t1/2,z Terminal half-life tmax Time to peak plasma concentration
ULOQ Upper limit of quantification
The study was conducted according to the study protocol and related amendment.
Fexinidazole was orally given by gavage once a day for 28 days to male and female Sprague Dawley rats according to the following scheme
Fexinidazole was suspended with 5% Tween 80 in 0.5% Methyl cellulose 400 cP.
6.2. Sample Collection and Handling
Blood samples (about 0.25 mL/sampling time) were withdrawn from retro-orbital sinus plexus under isofluorane anesthesia and put in heparinized plastic tubes kept on a ice-water bath, then centrifuged for 10 min at 1200g at +4°C and two aliquots of about 50 μL of plasma were stored in a freezer at -80°C until analysis. Blood was taken from three rats/gender/dose on Days 1 and 14 at pre-dose and 0.5, 1, 2, 4, 8 and 24 hours after dosing, on Day 28 at pre-dose and 1, 2, 4, 8, 24, 48 and 72 hours after dosing. After the administration of the vehicle, the samples were taken from three rats/gender at pre-dose and […]
6.3. Bioanalytical Method
Rat plasma concentrations of Fexinidazole and its sulfoxide (M1) and sulfone (M2) metabolites were determined by a validated LC/MS/MS method. The calibration range for the assay was 5-1000 ng/mL for Fexinidazole and 25-25000 ng/mL for M1 and M2.
Study samples containing analytes concentrations above the upper limit of quantitation were diluted with blank matrix prior to analysis.
6.4. Pharmacokinetic Calculations
Pharmacokinetic evaluation was carried out using non-compartmental approach with the aid […]
Excel spreadsheet (Microsoft Inc., Seattle, USA). […]
In the calculations, the undetectable concentrations between detectable ones were ignored.
After each dose level, Cmax and tmax of Fexinidazole and sulfoxide and sulfone metabolites […]
linear trapezoidal rule up to the last detectable concentration. On Day 28, since the blood […]
24 hours post dosing was calculated and denoted AUC0-24. This AUC was calculated in order to compare AUC values on Day 28 to those on Day 1 and Day 14. On Day 28, in addition, the half-life of the terminal phase, t1/2,z, was determined by linear regression analysis of the natural-log concentration vs. time curve, where t1/2,z = ln(2)/slope of the regression line.
Fexinidazole and metabolites accumulation ratios, based on Cmax (RA,Cmax), AUC0-24 (RA,AUC0-24) and AUC0-t(last) (RA,AUC0-t(last)), were calculated as the ratio between the parameters obtained on Day 14 and Day 28 to the corresponding one at Day 1. […]
pharmacokinetic parameters of each compound sorted by dose, gender and day of dosing. […]
compound are reported in Tables 1 and 2, whilst individual and mean parameters of each […]
Individual and mean (±SD, CV%) plasma
2A1 - 19A1 of Appendix 1. Individual plasma concentrations of Fexinidazole and both metabolites are plot in Figures 1 - 9, whilst the mean concentrations are plot in Figures 10 - 15. Mean normalized Cmax and AUC0-t(last) values of Fexinidazole and metabolites vs. dose are plot in Figures 16 - 21.
In-study bioanalytical validation data are reported in Appendix 2. All analytical batches met […]

[1] = Sprague-Dawley (Crl:CD (SD)IGS BR), 50 mg/kg/day, 50 mg/kg/day po, day 1
[2] = Sprague-Dawley (Crl:CD (SD)IGS BR), 50 mg/kg/day, 50 mg/kg/day po, day 14
[3] = Sprague-Dawley (Crl:CD (SD)IGS BR), 200 mg/kg/day, 200 mg/kg/day po, day 1
[4] = both sexes, Sprague-Dawley (Crl:CD (SD)IGS BR), 200 mg/kg/day, 200 mg/kg/day po, day 14
[5] = both sexes, Sprague-Dawley (Crl:CD (SD)IGS BR), 800 mg/kg/day, 800 mg/kg/day po, day 1
[6] = both sexes, Sprague-Dawley (Crl:CD (SD)IGS BR), 800 mg/kg/day, 800 mg/kg/day po, day 14

Structure (SMILES): Cn1c([N+](=O)[O-])cnc1COc1ccc(S(C)(=O)=O)cc1 [Fexinidazole sulfone]
- half-life (Sprague Dawley (Crl:CD (SD)IGS BR), 50 mg/kg/day, Day 28, female): 13 h
- half-life (Sprague Dawley (Crl:CD (SD)IGS BR), 50 mg/kg/day, Day 28, male): 6.1 ± 1.2 h
- half-life (Sprague Dawley (Crl:CD (SD)IGS BR), 200 mg/kg/day, Day 28, female): 7.3 h
- half-life (Sprague Dawley (Crl:CD (SD)IGS BR), 200 mg/kg/day, Day 28, male): 7.5 h
- half-life (Sprague Dawley (Crl:CD (SD)IGS BR), 800 mg/kg/day, Day 28, female (n=2)): 11 h
- half-life (Sprague Dawley (Crl:CD (SD)IGS BR), 800 mg/kg/day, Day 28, male): 10 h
- Cmax [1]: 2920 ± 2260 ng/mL
- Tmax [1]: 7.33 ± 1.63 h
- AUC(0-t) (Sprague-Dawley (Crl:CD (SD)IGS BR), 50 mg/kg/day, 50 mg/kg/day po, day 1, read-out: AUC0-t(last)): 36.1 ± 28.6 µg·h/mL
- Cmax [2]: 6380 ± 2300 ng/mL
- Tmax [2]: 6 ± 2.19 h
- AUC(0-t) (Sprague-Dawley (Crl:CD (SD)IGS BR), 50 mg/kg/day, 50 mg/kg/day po, day 14, read-out: AUC0-t(last)): 89.6 ± 34.1 µg·h/mL
- AUC (Sprague-Dawley (Crl:CD (SD)IGS BR), 50 mg/kg/day, Day 28, female): 175 µg·h/mL
- AUC (Sprague-Dawley (Crl:CD (SD)IGS BR), 50 mg/kg/day, Day 28, male): 106 µg·h/mL
- Cmax [3]: 9290 ± 1750 ng/mL
- Tmax [3]: 8 h
- AUC (Sprague-Dawley (Crl:CD (SD)IGS BR), 200 mg/kg/day, Day 28, female): 341 µg·h/mL
- AUC (Sprague-Dawley (Crl:CD (SD)IGS BR), 200 mg/kg/day, Day 28, male): 341 µg·h/mL
- AUC (Sprague-Dawley (Crl:CD (SD)IGS BR), 800 mg/kg/day, Day 28, female (n=2)): 572 µg·h/mL
- AUC (Sprague-Dawley (Crl:CD (SD)IGS BR), 800 mg/kg/day, Day 28, male): 459 µg·h/mL
- AUC(0-t) (both sexes, Sprague-Dawley (Crl:CD (SD)IGS BR), 200 mg/kg/day, 200 mg/kg/day po, day 1, read-out: AUC0-t(last)): 126 ± 17.5 µg·h/mL
- Cmax [4]: 20200 ± 2420 ng/mL
- Tmax [4]: 7.33 ± 1.63 h
- AUC(0-t) (both sexes, Sprague-Dawley (Crl:CD (SD)IGS BR), 200 mg/kg/day, 200 mg/kg/day po, day 14, read-out: AUC0-t(last)): 287 ± 36.5 µg·h/mL
- Cmax [5]: 42600 ± 13100 ng/mL
- Tmax [5]: 10.7 ± 6.53 h
- AUC(0-t) (both sexes, Sprague-Dawley (Crl:CD (SD)IGS BR), 800 mg/kg/day, 800 mg/kg/day po, day 1, read-out: AUC0-t(last)): 574 ± 256 µg·h/mL
- Cmax [6]: 40500 ± 13000 ng/mL
- Tmax [6]: 6.67 ± 2.07 h
- AUC(0-t) (both sexes, Sprague-Dawley (Crl:CD (SD)IGS BR), 800 mg/kg/day, 800 mg/kg/day po, day 14, read-out: AUC0-t(last)): 543 ± 252 µg·h/mL
- Cmax (female, Sprague Dawley (Crl:CD (SD)IGS BR), 50 mg/kg, Day 1, female): 4420 ± 2410 ng/mL
- AUC(0-t) (female, Sprague Dawley (Crl:CD (SD)IGS BR), 50 mg/kg, Day 1, female, read-out: AUC0-t(last)): 55.8 ± 28.1 µg·h/mL
- Cmax (female, Sprague Dawley (Crl:CD (SD)IGS BR), 50 mg/kg/day, Day 28, female): 10700 ng/mL
- Cmax (female, Sprague Dawley (Crl:CD (SD)IGS BR), 200 mg/kg, Day 1, female): 10000 ± 815 ng/mL
- AUC(0-t) (female, Sprague Dawley (Crl:CD (SD)IGS BR), 200 mg/kg, Day 1, female, read-out: AUC0-t(last)): 134 ± 10.8 µg·h/mL
- Cmax (female, Sprague Dawley (Crl:CD (SD)IGS BR), 200 mg/kg/day, Day 28, female): 21400 ng/mL
- Cmax (female, Sprague Dawley (Crl:CD (SD)IGS BR), 800 mg/kg, Day 1, female): 44800 ± 20100 ng/mL
- AUC(0-t) (female, Sprague Dawley (Crl:CD (SD)IGS BR), 800 mg/kg, Day 1, female, read-out: AUC0-t(last)): 683 ± 241 µg·h/mL
- Cmax (female, Sprague Dawley (Crl:CD (SD)IGS BR), 800 mg/kg/day, Day 28, female (n=2)): 41900 ng/mL
- AUC(0-t) (female, Sprague-Dawley (Crl:CD (SD)IGS BR), 50 mg/kg/day, Day 28, female, read-out: AUC0-t(last)): 197 µg·h/mL
- AUC(0-t) (female, Sprague-Dawley (Crl:CD (SD)IGS BR), 200 mg/kg/day, Day 28, female, read-out: AUC0-t(last)): 448 µg·h/mL
- AUC(0-t) (female, Sprague-Dawley (Crl:CD (SD)IGS BR), 800 mg/kg/day, Day 28, female (n=2), read-out: AUC0-t(last)): 738 µg·h/mL
- Cmax (male, Sprague Dawley (Crl:CD (SD)IGS BR), 50 mg/kg, Day 1, male): 1420 ± 393 ng/mL
- AUC(0-t) (male, Sprague Dawley (Crl:CD (SD)IGS BR), 50 mg/kg, Day 1, male, read-out: AUC0-t(last)): 16.5 ± 9.76 µg·h/mL
- Cmax (male, Sprague Dawley (Crl:CD (SD)IGS BR), 50 mg/kg/day, Day 28, male): 7750 ng/mL
- Cmax (male, Sprague Dawley (Crl:CD (SD)IGS BR), 200 mg/kg, Day 1, male): 8550 ± 2310 ng/mL
- AUC(0-t) (male, Sprague Dawley (Crl:CD (SD)IGS BR), 200 mg/kg, Day 1, male, read-out: AUC0-t(last)): 119 ± 21.9 µg·h/mL
- Cmax (male, Sprague Dawley (Crl:CD (SD)IGS BR), 200 mg/kg/day, Day 28, male): 24200 ng/mL
- Cmax (male, Sprague Dawley (Crl:CD (SD)IGS BR), 800 mg/kg, Day 1, male): 40300 ± 1560 ng/mL
- AUC(0-t) (male, Sprague Dawley (Crl:CD (SD)IGS BR), 800 mg/kg, Day 1, male, read-out: AUC0-t(last)): 465 ± 264 µg·h/mL
- Cmax (male, Sprague Dawley (Crl:CD (SD)IGS BR), 800 mg/kg/day, Day 28, male): 33000 ng/mL
- AUC(0-t) (male, Sprague-Dawley (Crl:CD (SD)IGS BR), 50 mg/kg/day, Day 28, male, read-out: AUC0-t(last)): 113 µg·h/mL
- AUC(0-t) (male, Sprague-Dawley (Crl:CD (SD)IGS BR), 200 mg/kg/day, Day 28, male, read-out: AUC0-t(last)): 387 µg·h/mL
- AUC(0-t) (male, Sprague-Dawley (Crl:CD (SD)IGS BR), 800 mg/kg/day, Day 28, male, read-out: AUC0-t(last)): 509 µg·h/mL
